A short description of series [1]: amount of compound contained in the fabric before and after laundering (Soxhlet extraction, HPLC). The class given is physicochemical. As to conditions: treated fabric of the Example; for Amounts, Laundering Number L25 (amount of the compound in the fabric after 25 launderings): after 25 launderings (JIS L02173-103), methylene dichloride extraction 4 hours; for Amounts, Laundering Number L0 (amount of the compound in the fabric before laundering): methylene dichloride extraction. On the procedure:
The fabric is subjected to a test for determining the amount of Permethrin and octylisothiazolone contained therein.
The compounds contained in the fabric are extracted, and determined by High Performance Liquid Chromatography (HPLC).
The fabric is laundered 25 times (JIS L02173-103). Then, the fabric is extracted for 4 hours with methylene dichloride in a Soxhlet extractor. The extract thus obtained is applied into HPLC for determining the amount of Permethrin or octylisothiazolone.
The amount of the compound contained in the fabric is determined by extraction and HPLC. L0 represents the amount of the compound before laundering. L25 represents the amount of the compound after 25 launderings.

In the next series the test system is rabbits. As to conditions: cited from earlier work.
Another series relates to rats. As to conditions: cited from earlier work.

For the compound `CCCCCCCCn1sccc1=O` [Octylisothiazolone, octylisothiazolone], the “Amounts, Laundering Number L25 (amount of the compound in the fabric after 25 launderings)” value in series [1] was 10 ppm; in series [1] (listed as octylisothiazolone), “greater than 8 ppm”. Further, the “Amounts, Laundering Number L0 (amount of the compound in the fabric before laundering)” value in series [1] is 80 ppm. Further, the “LD50 for acute dermal toxicity in rabbits” value in the series with rabbits is given as “up to 311 mg/kg”. The “LD50 for acute oral toxicity in rats” value in the series on rats is given as “up to 270 mg/kg”.

Turning to `CC1(C)C(C=C(Cl)Cl)C1C(=O)OCc1cccc(Oc2ccccc2)c1` (centres unmarked) [Permethrin], the “Amounts, Laundering Number L0 (amount of the compound in the fabric before laundering)” value in series [1] came to 536 ppm. Besides, the “LD50 for acute dermal toxicity in rabbits” value in the series with rabbits is given as “greater than 2500 mg/kg”. Also, the “LD50 for acute oral toxicity in rats” value with rats was “up to 470 mg/kg”.

The values are drawn from patent publication US20060034882A1, “Yarns and fabrics having long-lasting mosquito repellent or antibacterial effect and their preparation” (FORMOSA TAFFETA CO., LTD., priority 2004, published 2006).
